Reference: patent US9517208B2, “Abuse-deterrent dosage forms” (PURDUE PHARMA L.P., priority 2013, dated 2016)

Test: Osmolality of mixtures of crushed tablets (or drug solution) in distilled water, Osmometer Model 3250
Assay type: physicochemical
Settings: 1 mg/ml, without dextrose, sodium chloride and potassium phosphate dibasic (control)
Method: The osmolality of the resulting solution may be measured by using an osmometer (e.g., Advanced® Osmometer Model 3250, manufactured by Advanced Instruments, Inc., the User's Guide (3255 Rev13 042710) of which is herein incorporated by reference).
To determine whether mixtures formed by crushing tablets formulated prior to the present invention and mixing the crushed tablets with 3 mL or 5 mL of distilled water are hypertonic, a 30 mg Roxicodone® tablet^1 (oxycodone hydrochloride tablets USP) was crushed with a mortar and pestle to a powder. […]
(§1) To determine whether the mixtures (i.e., solutions, suspensions or gels) formed by crushing these tablets and mixing the crushed tablets with 3 mL or 5 mL of distilled water are hypertonic, one tablet of each formulation was crushed with a mortar and pestle. […] The osmolality of the resulting mixtures was measured using Osmometer Model 3250 manufactured by Advanced Instruments, Inc. The following results were obtained: […]
as §1, with “tablet from” for “tablet of”, “each blend” for “each formulation”, “and pestle to a powder.” for “and pestle.”, “measured twice” for “measured”

COc1ccc2c3c1O[C@H]1C(=O)CC[C@H]4[C@@H](C2)N(C)CC[C@]314.O=C(O)C(O)C(O)C(=O)O [hydrocodone bitartrate]
Osmolality of solution: 4 mOsmol
